From paper PMC6407579, “New flavonoid – N,N-dibenzyl(N-methyl)amine hybrids: Multi-target-directed agents for Alzheimer´s disease endowed with neurogenic properties” (Journal of Enzyme Inhibition and Medicinal Chemistry, 2019) come the findings set out here.

“And” between values parts separate entries of the source, which are not always exact repeats. Equal entries are not always repeated. Where two headings read alike, the source gives them in different places.

The target of data set [1] is T1, human recombinant AChE (hAChE) (Homo sapiens, UniProt P22303).
T1 construct: purchased Sigma Chemical Co
T1 sequence (P22303 32-614): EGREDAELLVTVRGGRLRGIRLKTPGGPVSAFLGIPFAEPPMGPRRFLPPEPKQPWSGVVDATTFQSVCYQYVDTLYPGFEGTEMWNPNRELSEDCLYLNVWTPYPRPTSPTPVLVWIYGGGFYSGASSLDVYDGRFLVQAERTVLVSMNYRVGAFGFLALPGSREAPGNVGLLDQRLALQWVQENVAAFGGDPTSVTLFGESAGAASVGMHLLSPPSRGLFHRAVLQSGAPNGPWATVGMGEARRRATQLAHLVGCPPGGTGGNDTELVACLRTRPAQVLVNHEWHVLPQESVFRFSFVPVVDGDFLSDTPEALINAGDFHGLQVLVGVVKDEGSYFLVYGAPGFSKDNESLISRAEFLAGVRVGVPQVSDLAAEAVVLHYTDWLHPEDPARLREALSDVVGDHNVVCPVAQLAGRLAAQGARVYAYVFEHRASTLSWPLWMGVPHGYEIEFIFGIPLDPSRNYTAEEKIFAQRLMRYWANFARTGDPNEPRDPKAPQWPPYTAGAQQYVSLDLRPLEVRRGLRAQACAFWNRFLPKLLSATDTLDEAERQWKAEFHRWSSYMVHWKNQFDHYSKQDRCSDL
The data set is described as follows: biochemical. On the procedure: The Ellman method was followed, using human recombinant AChE and BuChE from human serum. The assay solution consisted of 0.1 M phosphate buffer pH 8.0, 400 μM 5,5´-dithiobis(2-nitrobenzoic acid) (DTNB, Ellman’s reagent), 0.05 U/mL hAChE (Sigma Chemical Co.) or 0.024 U/mL hBuChE (Sigma Chemical Co.), and 800 μM acetylthiocholine iodide, or 500 μM butyrylthiocholine as the substrate of the enzymatic reaction, respectively. The compounds tested were added to the assay solution and preincubated with the enzyme for 5 min at 30 °C. After that period, the substrate was added.

For another data set, the target named is T2, recombinant hMAO-A (Homo sapiens, UniProt P21397).
T2 sequence (P21397 1-527): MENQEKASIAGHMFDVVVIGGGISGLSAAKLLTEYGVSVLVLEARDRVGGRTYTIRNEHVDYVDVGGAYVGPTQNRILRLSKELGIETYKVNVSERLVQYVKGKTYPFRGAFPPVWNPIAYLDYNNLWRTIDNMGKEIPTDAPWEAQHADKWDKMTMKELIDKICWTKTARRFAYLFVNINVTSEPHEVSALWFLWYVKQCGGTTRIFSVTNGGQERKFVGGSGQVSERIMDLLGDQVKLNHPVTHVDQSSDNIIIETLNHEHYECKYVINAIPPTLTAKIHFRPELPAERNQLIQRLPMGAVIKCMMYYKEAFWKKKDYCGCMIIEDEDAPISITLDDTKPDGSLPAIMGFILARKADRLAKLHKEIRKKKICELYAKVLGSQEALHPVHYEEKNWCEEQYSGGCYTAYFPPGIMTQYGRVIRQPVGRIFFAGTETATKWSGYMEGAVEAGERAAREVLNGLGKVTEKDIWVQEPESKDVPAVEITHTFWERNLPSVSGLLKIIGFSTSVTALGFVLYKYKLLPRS
Briefly: biochemical. The settings on record: mean ± SEM (n = 3); 100 µM highest concentration tested. In kind it is biochemical.

A further data set deals with T3, recombinant hMAO-B (Homo sapiens, UniProt P27338).
T3 sequence (P27338 1-520): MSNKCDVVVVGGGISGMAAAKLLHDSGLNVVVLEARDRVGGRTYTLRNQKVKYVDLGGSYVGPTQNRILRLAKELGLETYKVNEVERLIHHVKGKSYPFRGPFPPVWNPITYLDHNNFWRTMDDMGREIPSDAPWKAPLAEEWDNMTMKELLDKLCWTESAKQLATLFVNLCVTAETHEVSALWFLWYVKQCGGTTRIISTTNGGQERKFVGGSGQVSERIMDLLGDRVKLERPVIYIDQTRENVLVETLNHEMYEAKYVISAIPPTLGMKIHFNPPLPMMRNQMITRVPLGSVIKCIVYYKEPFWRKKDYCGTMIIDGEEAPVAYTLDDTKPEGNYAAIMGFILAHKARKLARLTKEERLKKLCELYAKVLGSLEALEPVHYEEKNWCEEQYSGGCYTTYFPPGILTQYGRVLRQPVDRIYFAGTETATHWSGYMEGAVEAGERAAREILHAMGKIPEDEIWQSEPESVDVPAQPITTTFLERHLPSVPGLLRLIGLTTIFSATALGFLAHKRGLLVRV
The data set is described as follows: biochemical. The class given is biochemical. The settings on record: for IC50: mean ± SEM (n = 3), 100 µM highest concentration tested.

The nature of data set [2]: Oxygen radical absorbance capacity assay (ORAC). To be noted: trolox taken as 1.0.
Data set [3] can be described thus: In vitro blood-brain barrier permeation assay (PAMPA-BBB). In kind it is in vitro ADME. To be noted: pig, pH 7.4, porcine brain lipid, PBS:ethanol (70:30), 25 °C, read-out: PAMPA-BBB permeability in the CNS (Pe). On the procedure:
Prediction of the brain penetration was evaluated using a parallel artificial membrane permeation assay (PAMPA-BBB), in a similar manner as previously described[36]^,[46]^,[51–53]. Pipetting was performed with a semi-automatic pipettor (CyBi®-SELMA) and UV reading with a microplate spectrophotometer (Multiskan Spectrum, Thermo Electron Co.). Commercial drugs, phosphate buffered saline solution at pH 7.4 (PBS), and dodecane were purchased from Sigma, Aldrich, Acros, and Fluka. Millex filter units (PVDF membrane, diameter 25 mm, pore size 0.45 μm) were acquired from Millipore. The porcine brain lipid (PBL) was obtained from Avanti Polar Lipids. The donor microplate was a 96-well filter plate (PVDF membrane, pore size 0.45 μm) and the acceptor microplate was an indented 96-well plate, both from Millipore. The acceptor 96-well microplate was filled with 200 μL of PBS: ethanol (70:30) and the filter surface of the donor microplate was impregnated with 5 μL of porcine brain lipid (PBL) in dodecane (20 mg mL^−1). Compounds were dissolved in PBS: ethanol (70:30) at 100 μg mL^−1, filtered through a Millex filter, and then added to the donor wells (200 μL). The donor filter plate was carefully put on the acceptor plate to form a sandwich, which was left undisturbed for 120 min at 25 °C. After incubation, the donor plate is carefully removed and the concentration of compounds in the acceptor wells was determined by UV-Vis spectroscopy. Every sample is analysed at five wavelengths, in four wells and at least in three independent runs, and the results are given as the mean ± standard deviation. In each experiment, 11 quality control standards of known BBB permeability were included to validate and normalise the analysis set.
To check if new compounds could be able to reach their CNS-targets, we used the in vitro parallel artificial membrane permeability assay for the blood-brain barrier (PAMPA-BBB) described by Di et al.[87], and partially modified by us for testing molecules with limited water-solubility[36]^,[46]^,[51–53]. The passive CNS-permeation of new compounds 1–13 through a lipid extract of porcine brain was measured at room temperature. In each experiment, 11 commercial drugs of known brain permeability were also tested and their permeability values normalised to the reported PAMPA-BBB data. […].
On the technique in general: In PAMPA a lipid-coated filter parts donor from acceptor wells.

In another data set the target is T4, hLOX-5 (Homo sapiens, UniProt P09917).
T4 sequence (P09917 1-674): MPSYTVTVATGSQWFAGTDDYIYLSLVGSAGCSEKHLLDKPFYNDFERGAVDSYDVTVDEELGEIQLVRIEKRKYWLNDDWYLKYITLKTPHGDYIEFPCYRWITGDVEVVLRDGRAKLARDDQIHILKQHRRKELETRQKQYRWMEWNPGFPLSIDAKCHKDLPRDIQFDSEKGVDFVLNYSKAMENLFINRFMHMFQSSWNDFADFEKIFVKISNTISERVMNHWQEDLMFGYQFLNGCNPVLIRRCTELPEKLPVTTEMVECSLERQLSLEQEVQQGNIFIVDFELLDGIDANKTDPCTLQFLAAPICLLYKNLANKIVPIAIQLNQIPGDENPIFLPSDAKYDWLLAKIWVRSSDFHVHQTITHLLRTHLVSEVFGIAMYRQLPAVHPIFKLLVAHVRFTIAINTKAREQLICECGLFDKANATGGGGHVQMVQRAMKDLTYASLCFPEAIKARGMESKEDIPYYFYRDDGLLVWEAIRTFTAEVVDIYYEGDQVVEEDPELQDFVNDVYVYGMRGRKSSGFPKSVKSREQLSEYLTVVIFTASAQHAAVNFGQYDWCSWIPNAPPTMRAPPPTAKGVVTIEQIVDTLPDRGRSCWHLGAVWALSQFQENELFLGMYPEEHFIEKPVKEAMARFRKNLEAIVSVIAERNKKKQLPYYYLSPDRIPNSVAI
Briefly: Inhibition of human lipoxygenase-5 (fluorescence-based, Pufahl). The class given is biochemical. To be noted: three independent experiments. On the procedure:
The fluorescence-based enzyme method developed by Pufahl et al. was followed, in 96-well microtiter plates. The assay solution consists of Tris buffer (50 mM, pH 7.5), ethylenediaminetetraacetic acid (EDTA, 2 mM), CaCl2 (2 mM), arachidonic acid (AA, 3 μM), ATP (10 μM), 2',7'-dichlorodihydrofluorescein diacetate (H2DCFDA, 10 μM), hLOX-5 (100 mU/well), bovine glutathione peroxidase (GPx, 25 mU/well) and reduced glutathione (GSH, 1 mM). Compounds to be tested were added to the test solution prior to AA and ATP, and pre-incubated for a period of 10 min at room temperature. Then, the AA and ATP substrates were added; the enzymatic reaction allowed to progress for 20 min and ended by the addition of 40 μL of acetonitrile.
A selection of new hybrids covering different structural motifs was assayed as inhibitors of hLOX-5, followed the method described by Pufahl et al.[55].

Where [4] appears, read: mean ± SEM (n = 3), read-out: hAChE IC50.

What is called IC50 is the concentration that gives 50% inhibition. Take `CN(Cc1ccccc1)Cc1ccc(NC(=O)c2cc(=O)c3cc(O)c(O)cc3[nH]2)cc1` [Compound 12, N-(4-((benzyl(methyl)amino)methyl)phenyl)-6,7-dihydroxy-4-oxo-1,4-dihydroquinoline-2-carboxamide]: the IC50 in data set [1] (hAChE IC50, mean ± SEM (n = 3)) was over 10 µM; at recombinant hMAO-A, over 100 µM; at recombinant hMAO-B, over 100 µM. Moreover, the “ORAC, trolox equivalents” value in data set [2] is 0.5 mmol of trolox/mmol of tested compound and 0.5 ± 0.1 mmol of trolox/mmol of tested compound. Further, the Papp at 120 min, 100 μg mL^−1 in data set [3] came out at 8.8 ± 0.7 ×10⁻⁶ cm/s.
As for `COc1cc2[nH]c(C(=O)Nc3ccc(CN(C)Cc4ccccc4)cc3)cc(=O)c2cc1OC` [Compound 11, N-(4-((benzyl(methyl)amino)methyl)phenyl)-6,7-dimethoxy-4-oxo-1,4-dihydroquinoline-2-carboxamide], the IC50 is 4.5 ± 0.3 µM in data set [1] (hAChE IC50, mean ± SEM (n = 3)); over 100 µM on recombinant hMAO-A; over 100 µM on recombinant hMAO-B. Further, in data set [3], the Papp at 120 min, 100 μg mL^−1 worked out at 19.1 ± 1.5 ×10⁻⁶ cm/s.
As to `COc1ccc2[nH]c(C(=O)Nc3ccc(CN(C)Cc4ccccc4)cc3)cc(=O)c2c1` [Compound 8, N-(4-((Benzyl(methyl)amino)methyl)phenyl)-6-methoxy-4-oxo-1,4-dihydroquinoline-2-carboxamide], the IC50 in data set [1] (setting [4]) was 2.3 ± 0.1 µM; at recombinant hMAO-A it was over 100 µM; at recombinant hMAO-B it was over 100 µM; at hLOX-5 (mean ± SEM, read-out: hLOX-5 IC50), over 100 µM. In addition, in data set [3], the Papp at 120 min, 100 μg mL^−1 came out at 24.8 ± 2 ×10⁻⁶ cm/s. For the same compound, at hLOX-5 (mean ± SEM), the “hLOX-5 IC50” value was “inactive”.
Turning to `COc1ccc2c(=O)cc(C(=O)Nc3ccc(CN(C)Cc4ccccc4)cc3)[nH]c2c1` [Compound 10, N-(4-((Benzyl(methyl)amino)methyl)phenyl)-7-methoxy-4-oxo-1,4-dihydroquinoline-2-carboxamide], the IC50 in data set [1] (hAChE IC50, mean ± SEM (n = 3)) is 2.3 ± 0.2 µM; at recombinant hMAO-A, over 100 µM; on recombinant hMAO-B, over 100 µM; against hLOX-5 (hLOX-5 IC50, mean ± SEM), 82.8 ± 4.1 µM. Further, the Papp at 120 min, 100 μg mL^−1 in data set [3] was 21.7 ± 1.9 ×10⁻⁶ cm/s.
Consider `Cc1c(C)c2c(c(C)c1O)CCC(C)(C(=O)O)O2` (racemic) [Trolox, (±)-6-hydroxy-2,5,7,8-tetramethylchromane-2-carboxylic acid, reference compound], for which the “ORAC, trolox equivalents” value in data set [2] is on record as 1.0 mmol of trolox/mmol of tested compound.
For the compound `COc1cc(OC)c2c(=O)cc(C(=O)Nc3ccc(CN(C)Cc4ccccc4)cc3)oc2c1` [Compound 3, N-(4-((Benzyl(methyl)amino)methyl)phenyl)-5,7-dimethoxy-4-oxo-4H-chromene-2-carboxamide], the half-inhibitory concentration (IC50) in data set [1] (hAChE IC50, mean ± SEM (n = 3)) is 3.2 ± 0.4 µM; on recombinant hMAO-A it was over 100 µM; at recombinant hMAO-B, over 100 µM. Further, the Papp at 120 min, 100 μg mL^−1 in data set [3] was found to be 19.4 ± 1.7 ×10⁻⁶ cm/s.
Turning to `COc1cccc2[nH]c(C(=O)Nc3ccc(CN(C)Cc4ccccc4)cc3)cc(=O)c12` [Compound 7, N-(4-((Benzyl(methyl)amino)methyl)phenyl)-5-methoxy-4-oxo-1,4-dihydroquinoline-2-carboxamide], the IC50 was 4 ± 0.4 µM in data set [1] (setting [4]), over 100 µM on recombinant hMAO-A and 15.2 ± 1 µM at recombinant hMAO-B. The “more active in hMAO-B than in hMAO-A” value at recombinant hMAO-B was 6.6 fold. Further, the Papp at 120 min, 100 μg mL^−1 in data set [3] came to 23 ± 2.1 ×10⁻⁶ cm/s.
On to `CN(Cc1ccccc1)Cc1ccc(NC(=O)c2cc(=O)c3cc(O)ccc3[nH]2)cc1` [Compound 9, N-(4-((Benzyl(methyl)amino)methyl)phenyl)-6-hydroxy-4-oxo-1,4-dihydroquinoline-2-carboxamide], for which the half-maximal inhibitory concentration (IC50) was 3.1 ± 0.3 µM in data set [1] (hAChE IC50, mean ± SEM (n = 3)); over 100 µM at recombinant hMAO-A; over 100 µM on recombinant hMAO-B. Also, in data set [2], the “ORAC, trolox equivalents” value is 1.2 mmol of trolox/mmol of tested compound and 1.2 ± 0.1 mmol of trolox/mmol of tested compound. Also, in data set [3], the Papp at 120 min, 100 μg mL^−1 is 8.4 ± 0.7 ×10⁻⁶ cm/s.
On to `COc1cc2[nH]c(C(=O)Nc3cccc(CN(C)Cc4ccccc4)c3)cc(=O)c2cc1OC` [Compound 13, N-(3-((Benzyl(methyl)amino)methyl)phenyl)-6,7-dimethoxy-4-oxo-1,4-dihydroquinoline-2-carboxamide], for which the IC50 in data set [1] (hAChE IC50, mean ± SEM (n = 3)) is over 10 µM; at recombinant hMAO-A, over 100 µM; at recombinant hMAO-B, over 100 µM; at hLOX-5 (hLOX-5 IC50, mean ± SEM), 36.6 ± 3.1 µM. The Papp at 120 min, 100 μg mL^−1 in data set [3] worked out at 15.1 ± 1.2 ×10⁻⁶ cm/s.
